Source: article PMC8409088 (ChemistryOpen, 2020)
Counter-ions that a name gives are not always drawn.

Target: glutaminyl cyclase (QC, QPCT) (Homo sapiens, UniProt Q16769)
Test: glutamic dehydrogenase-coupled assay, NADH absorbance at […] nm
Type: biochemical

Sequence of glutaminyl cyclase (QC, QPCT) (Q16769 33-361): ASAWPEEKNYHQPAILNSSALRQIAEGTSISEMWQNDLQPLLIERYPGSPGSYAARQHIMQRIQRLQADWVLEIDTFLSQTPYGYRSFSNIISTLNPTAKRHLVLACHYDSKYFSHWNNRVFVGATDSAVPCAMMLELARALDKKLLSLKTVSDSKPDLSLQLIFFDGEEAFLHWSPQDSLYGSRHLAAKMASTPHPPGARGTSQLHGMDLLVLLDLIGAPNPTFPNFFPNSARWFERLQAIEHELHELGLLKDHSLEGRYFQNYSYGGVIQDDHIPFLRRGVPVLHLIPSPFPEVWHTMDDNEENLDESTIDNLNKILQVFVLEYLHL

With Cc1cnc(C(=O)O)c[n+]1[O-] [Acipimox] as the compound, how does the Ki read?
Its Ki is 6.23 ± 0.85 mM.

Which Ki does the source give for O=C(/C=C/c1cccc(S(=O)(=O)Nc2ccccc2)c1)NO [Belinostat (PXD101)] here?
Its Ki is 2.98 ± 0.67 mM.

How did the Ki turn out when Cc1cccc(Cc2c[nH]cn2)c1C [Detomidine HCl] was run?
Its Ki is 2.58 ± 0.28 mM.

Which Ki does the source give for CC[C@@H]1C(=O)OC[C@@H]1Cc1cncn1C [Pilocarpine HCl] here?
The Ki was 13.2 ± 7.27 mM.
